We go through 17 molecules from PubChem BioAssay (NCI).

Structures are written as SMILES.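 Growth conditions: 96-well plates. Treatment: test compound, 48 hours, 5 concentrations. Analysis: linear interpolation between bracketing concentrations; unreached endpoints set to highest concentration. The concentration for full growth arrest is given as TGI.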

Among the test systems are ACHN renal; SF-539 CNS; RXF 393 renal; UACC-257 melanoma; CCRF-CEM leukemia; TK-10 renal; OVCAR-3 ovarian; HOP-92 NSCLC; PC-3 prostate.
What all share (assay): growth of human tumour cells (NCI), 48 h

Take `CS(=O)(=O)NNS(=O)(=O)c1ccccc1`: the TGI with ACHN renal, in the assay with SF-539 CNS, with RXF 393 renal, with UACC-257 melanoma, in the assay with CCRF-CEM leukemia and in the assay on TK-10 renal was above 100 µM in each case.

As for `Cc1nnc2c3nnc(C)n3c3ccccc3n12`, the TGI in the assay with ACHN renal, in the assay on SF-539 CNS, with OVCAR-3 ovarian, with HOP-92 NSCLC, in the assay on RXF 393 renal and in the assay with UACC-257 melanoma was above 100 µM in each case. In addition, the TGI in the assay with CCRF-CEM leukemia and with TK-10 renal was above 100 µM each time.

For the molecule `NC(=O)c1c([N+](=O)[O-])cc(C(F)(F)F)cc1[N+](=O)[O-]`, the TGI in the assay with ACHN renal was above 100 µM; in the assay on SF-539 CNS, above 100 µM; with OVCAR-3 ovarian it was 63.3 µM; with HOP-92 NSCLC, above 100 µM; in the assay with RXF 393 renal, above 100 µM; with UACC-257 melanoma, 99.8 µM. Also, the TGI with TK-10 renal was above 100 µM.

Take `O=C(NCCO)c1ccc([N+](=O)[O-])cc1`: the TGI in the assay with SF-539 CNS, in the assay on OVCAR-3 ovarian, in the assay on RXF 393 renal, with UACC-257 melanoma, in the assay on CCRF-CEM leukemia and in the assay on TK-10 renal was above 100 µM each time.

For `C[N+](C)(C)CC1CCC/C1=N/O` (configuration not stated), the TGI with ACHN renal, with SF-539 CNS, in the assay with OVCAR-3 ovarian, in the assay with HOP-92 NSCLC, in the assay on RXF 393 renal and in the assay with UACC-257 melanoma was above 100 µM throughout. The TGI with CCRF-CEM leukemia was 39.1 µM; in the assay on TK-10 renal, above 100 µM.

For `Cn1c(=O)c(NC(=O)C(Cl)(Cl)Cl)nc2ccccc21`, the TGI in the assay on SF-539 CNS, with OVCAR-3 ovarian, in the assay with RXF 393 renal, with UACC-257 melanoma, in the assay with CCRF-CEM leukemia and in the assay on TK-10 renal was above 100 µM each time.

Take `O=C1NC(=O)C(=Nc2cccc3c(=O)[nH][nH]c(=O)c23)C(c2nc3ccccc3s2)C1=O` (configuration not stated): the TGI with ACHN renal, in the assay on OVCAR-3 ovarian, in the assay on HOP-92 NSCLC, with RXF 393 renal, with UACC-257 melanoma and in the assay with CCRF-CEM leukemia was above 100 µM throughout. The same molecule gave a TGI with TK-10 renal above 100 µM.

As for `O=C(CCC(=O)Nc1ccc(Cl)c(Cl)c1)CC(=O)c1ccc(F)cc1`, the TGI in the assay on ACHN renal, with SF-539 CNS, in the assay on OVCAR-3 ovarian, in the assay with HOP-92 NSCLC, in the assay with RXF 393 renal and in the assay on UACC-257 melanoma was above 100 µM in each case. Also, the TGI in the assay with CCRF-CEM leukemia is above 100 µM.

As for `COC(=O)CCC1CCc2c(OC)ccc(OC)c2C1=O` (configuration not stated), the TGI in the assay with ACHN renal, in the assay on SF-539 CNS, in the assay on OVCAR-3 ovarian, with RXF 393 renal, in the assay with UACC-257 melanoma and in the assay with CCRF-CEM leukemia was above 100 µM each time. In addition, the TGI in the assay on TK-10 renal was above 100 µM.

On to `Cc1ccc(NC(=O)C2C(=O)N(c3ccc(C)c(C)c3)C(=O)/C2=N\NC(N)=O)cc1C` (configuration not stated), for which the TGI with ACHN renal, in the assay on SF-539 CNS, in the assay on OVCAR-3 ovarian, with HOP-92 NSCLC, with RXF 393 renal and in the assay on UACC-257 melanoma was above 100 µM each time. Moreover, the TGI in the assay with CCRF-CEM leukemia and in the assay on TK-10 renal was above 100 µM throughout.

Consider `Cc1noc2c1C(=O)CCC2`, for which the TGI in the assay on ACHN renal, with SF-539 CNS, in the assay with OVCAR-3 ovarian, in the assay with HOP-92 NSCLC, in the assay on RXF 393 renal and in the assay on UACC-257 melanoma was above 100 µM in each case. In addition, the TGI with CCRF-CEM leukemia and with TK-10 renal was above 100 µM throughout.

Turning to `CN(C)c1ccc(/C=C/c2ccc(/C=C/c3ccc(N(C)C)cc3)cc2)cc1`, the TGI with ACHN renal, in the assay on SF-539 CNS, in the assay on OVCAR-3 ovarian, with HOP-92 NSCLC, with RXF 393 renal and in the assay on UACC-257 melanoma was above 100 µM throughout. The TGI in the assay on CCRF-CEM leukemia and in the assay on TK-10 renal was above 100 µM in each case.

Take `O=S(=O)(O)c1ccc(N=Nc2nc(C(F)(F)F)c(C(F)(F)F)[nH]2)cc1`: the TGI with ACHN renal is above 100 µM; in the assay on SF-539 CNS, 65.9 µM; in the assay with OVCAR-3 ovarian, above 100 µM; with HOP-92 NSCLC it was 31.6 µM; with RXF 393 renal, 32.9 µM; in the assay with UACC-257 melanoma, above 100 µM. The TGI with CCRF-CEM leukemia and in the assay with TK-10 renal was above 100 µM throughout.

For the molecule `COC(=O)C(=CNC(N)=O)C(=O)OC`, the TGI in the assay with ACHN renal, in the assay on SF-539 CNS, in the assay with OVCAR-3 ovarian, in the assay on PC-3 prostate, in the assay on HOP-92 NSCLC and in the assay on UACC-257 melanoma was above 100 µM throughout. In addition, the TGI in the assay with CCRF-CEM leukemia and in the assay on TK-10 renal was above 100 µM in each case.

For the molecule `O=C(CSc1ncn[nH]1)C[P+](c1ccccc1)(c1ccccc1)c1ccccc1`, the TGI with ACHN renal, in the assay with SF-539 CNS, in the assay on OVCAR-3 ovarian, with HOP-92 NSCLC, in the assay with RXF 393 renal and in the assay on UACC-257 melanoma was above 100 µM throughout. Moreover, the TGI in the assay with CCRF-CEM leukemia and in the assay on TK-10 renal was above 100 µM each time.

In the case of `CCCCCCCCCCCCCCCCNCCCN(C)CCCN`, the TGI in the assay on ACHN renal came to 34.9 µM; in the assay with SF-539 CNS it was 34.5 µM; in the assay with OVCAR-3 ovarian it was 35.9 µM; in the assay with UACC-257 melanoma, 40.4 µM; with TK-10 renal, 29.3 µM.

For the molecule `CN(C)C(=Nc1nc(=[N+](C)C)ss1)N(C)C`, the TGI with ACHN renal, in the assay with SF-539 CNS, in the assay on HOP-92 NSCLC, in the assay on RXF 393 renal, in the assay with UACC-257 melanoma and in the assay with CCRF-CEM leukemia was above 100 µM throughout. The molecule further showed a TGI in the assay on TK-10 renal above 100 µM.
